The test system of this test is Venturia inaequalis. Put plainly: Combination of pyrimethanil and dodine in controlling apple scab: curative treatment of inoculated apple plants. Format: in vivo. To be noted: for Practical efficacy: treated 3 days after inoculation, scored one month after inoculation; for Protection (in words): used alone. The protocol:
Example: Combination of pyrimethanil and dodine in controlling apple scab
The fungicides evaluated are the following:
The fungicidal compositions evaluated are the following:
Apple plants (var. Melrose Golden) at the 5-6-leaf stage are inoculated with an aqueous suspension containing 150 000 spores of Venturia inaequalis/ml of inoculum. The plants are then placed in a climatic cell at 16-18° C., 100% RH (relative humidity) for 3 days. They are then treated with the fungicidal compositions at the doses cited above (12 repeats/dose) in a plant protection mixture at 500 l/ha and are again placed under the conditions described above. One month after the inoculation, scores are awarded. This consists in estimating the diseased leaf surface area in the two leaf stages sensitive to the disease and, by comparing with an untreated contaminated control, in defining the percentage efficacy according to the following formula:
% practical efficacy=100×(% contamination Control−% contamination Trial)/% contamination Control
The theoretical efficacy according to the Colby formula is calculated based on the following formula:
% theoretical efficacy A+B=% practical eff. A+% practical eff. B−(% practical eff. A×% practical eff. B/100)

Take `Cc1cc(C)nc(Nc2ccccc2)n1` [pyrimethanil]: the “Protection (in words)” value is given as “partial protection”. Besides, the Practical efficacy (pyrimethanil 50 g/ha alone, apple plants var. Melrose Golden) turned out to be 65.4%. Under “pyrimethanil 100 g/ha alone”, the Practical efficacy came out at 65.4%. Under “pyrimethanil 200 g/ha alone”, the Practical efficacy is listed as 61.5%.
Take dodecylguanidine monoacetate [dodine]: the “Protection (in words)” value is reported as “partial protection”. Besides, the Practical efficacy (dodine 150 g/ha alone) is 30.8%. Also, the Practical efficacy (dodine 300 g/ha alone) is 76.9%. Moreover, under “dodine 600 g/ha alone”, the Practical efficacy was 75%.

These data come from patent publication US6462052B1, “Synergistic fungicide and/or bactericide composition” (Rhone-Poulenc Agro, priority 1998, dated 2002).
